How the values were obtained:
[1] = molecular target: Carbonic anhydrase 9 (Homo sapiens, UniProt Q16790); test: Inhibition of recombinant human CA 9 preincubated for 15 mins by phenol red dye based stopped flow CO2 hydration assay
[2] = system: HL-60(TB); test: Anticancer activity against human HL-60(TB) cells assessed as cell growth inhibition at 10 uM incubated for 48 hrs by SRB assay relative to control; format: functional; conditions: read-out: GI
[3] = system: MOLT-4; test: Anticancer activity against human MOLT-4 cells assessed as cell growth inhibition at 10 uM incubated for 48 hrs by SRB assay relative to control; format: functional; conditions: read-out: GI
[4] = system: RPMI-8226; test: Anticancer activity against human RPMI-8226 cells assessed as cell growth inhibition at 10 uM incubated for 48 hrs by SRB assay relative to control; format: functional; conditions: read-out: GI
[5] = system: SR; test: Anticancer activity against human SR cells assessed as cell growth inhibition at 10 uM incubated for 48 hrs by SRB assay relative to control; format: functional; conditions: read-out: GI
[6] = system: A549; test: Anticancer activity against human A549 cells assessed as cell growth inhibition at 10 uM incubated for 48 hrs by SRB assay relative to control; format: functional; conditions: read-out: GI
[7] = system: EKVX; test: Anticancer activity against human EKVX cells assessed as cell growth inhibition at 10 uM incubated for 48 hrs by SRB assay relative to control; format: functional; conditions: read-out: GI
[8] = system: HOP-62; test: Anticancer activity against human HOP-62 cells assessed as cell growth inhibition at 10 uM incubated for 48 hrs by SRB assay relative to control; format: functional; conditions: read-out: GI
[9] = system: NCI-H226; test: Anticancer activity against human NCI-H226 cells assessed as cell growth inhibition at 10 uM incubated for 48 hrs by SRB assay relative to control; format: functional; conditions: read-out: GI
[10] = system: NCI-H460; test: Anticancer activity against human NCI-H460 cells assessed as cell growth inhibition at 10 uM incubated for 48 hrs by SRB assay relative to control; format: functional; conditions: read-out: GI
[11] = system: COLO 205; test: Anticancer activity against human COLO 205 cells assessed as cell growth inhibition at 10 uM incubated for 48 hrs by SRB assay relative to control; format: functional; conditions: read-out: GI
[12] = system: HCC 2998; test: Anticancer activity against human HCC 2998 cells assessed as cell growth inhibition at 10 uM incubated for 48 hrs by SRB assay relative to control; format: functional; conditions: read-out: GI
[13] = system: HCT-116; test: Anticancer activity against human HCT-116 cells assessed as cell growth inhibition at 10 uM incubated for 48 hrs by SRB assay relative to control; format: functional; conditions: read-out: GI
[14] = system: KM12; test: Anticancer activity against human KM12 cells assessed as cell growth inhibition at 10 uM incubated for 48 hrs by SRB assay relative to control; format: functional; conditions: read-out: GI
[15] = system: SF-268; test: Anticancer activity against human SF-268 cells assessed as cell growth inhibition at 10 uM incubated for 48 hrs by SRB assay relative to control; format: functional; conditions: read-out: GI
[16] = system: SNB-19; test: Anticancer activity against human SNB-19 cells assessed as cell growth inhibition at 10 uM incubated for 48 hrs by SRB assay relative to control; format: functional; conditions: read-out: GI
[17] = system: U-251; test: Anticancer activity against human U-251 cells assessed as cell growth inhibition at 10 uM incubated for 48 hrs by SRB assay relative to control; format: functional; conditions: read-out: GI
[18] = system: Malme-3M; test: Anticancer activity against human Malme-3M cells assessed as cell growth inhibition at 10 uM incubated for 48 hrs by SRB assay relative to control; format: functional; conditions: read-out: GI
[19] = system: MDA-MB-435; test: Anticancer activity against human MDA-MB-435 cells assessed as cell growth inhibition at 10 uM incubated for 48 hrs by SRB assay relative to control; format: functional; conditions: read-out: GI
[20] = system: SK-MEL-2; test: Anticancer activity against human SK-MEL-2 cells assessed as cell growth inhibition at 10 uM incubated for 48 hrs by SRB assay relative to control; format: functional; conditions: read-out: GI
[21] = system: SK-MEL-5; test: Anticancer activity against human SK-MEL-5 cells assessed as cell growth inhibition at 10 uM incubated for 48 hrs by SRB assay relative to control; format: functional; conditions: read-out: GI
[22] = system: UACC-257; test: Anticancer activity against human UACC-257 cells assessed as cell growth inhibition at 10 uM incubated for 48 hrs by SRB assay relative to control; format: functional; conditions: read-out: GI
[23] = system: UACC-62; test: Anticancer activity against human UACC-62 cells assessed as cell growth inhibition at 10 uM incubated for 48 hrs by SRB assay relative to control; format: functional; conditions: read-out: GI
[24] = system: IGROV-1; test: Anticancer activity against human IGROV-1 cells assessed as cell growth inhibition at 10 uM incubated for 48 hrs by SRB assay relative to control; format: functional; conditions: read-out: GI
[25] = system: OVCAR-3; test: Anticancer activity against human OVCAR-3 cells assessed as cell growth inhibition at 10 uM incubated for 48 hrs by SRB assay relative to control; format: functional; conditions: read-out: GI
[26] = system: OVCAR-5; test: Anticancer activity against human OVCAR-5 cells assessed as cell growth inhibition at 10 uM incubated for 48 hrs by SRB assay relative to control; format: functional; conditions: read-out: GI
[27] = system: OVCAR-8; test: Anticancer activity against human OVCAR-8 cells assessed as cell growth inhibition at 10 uM incubated for 48 hrs by SRB assay relative to control; format: functional; conditions: read-out: GI
[28] = system: NCI/ADR-RES; test: Anticancer activity against human NCI/ADR-RES cells assessed as cell growth inhibition at 10 uM incubated for 48 hrs by SRB assay relative to control; format: functional; conditions: read-out: GI
[29] = system: 786-0; test: Anticancer activity against human 786-0 cells assessed as cell growth inhibition at 10 uM incubated for 48 hrs by SRB assay relative to control; format: functional; conditions: read-out: GI
[30] = system: ACHN; test: Anticancer activity against human ACHN cells assessed as cell growth inhibition at 10 uM incubated for 48 hrs by SRB assay relative to control; format: functional; conditions: read-out: GI
[31] = system: SN12C; test: Anticancer activity against human SN12C cells assessed as cell growth inhibition at 10 uM incubated for 48 hrs by SRB assay relative to control; format: functional; conditions: read-out: GI
[32] = system: TK-10; test: Anticancer activity against human TK-10 cells assessed as cell growth inhibition at 10 uM incubated for 48 hrs by SRB assay relative to control; format: functional; conditions: read-out: GI
[33] = system: UO-31; test: Anticancer activity against human UO-31 cells assessed as cell growth inhibition at 10 uM incubated for 48 hrs by SRB assay relative to control; format: functional; conditions: read-out: GI
[34] = system: PC-3; test: Anticancer activity against human PC-3 cells assessed as cell growth inhibition at 10 uM incubated for 48 hrs by SRB assay relative to control; format: functional; conditions: read-out: GI
[35] = system: MCF7; test: Anticancer activity against human MCF7 cells assessed as cell growth inhibition at 10 uM incubated for 48 hrs by SRB assay relative to control; format: functional; conditions: read-out: GI
[36] = system: MDA-MB-231; test: Anticancer activity against human MDA-MB-231 cells assessed as cell growth inhibition at 10 uM incubated for 48 hrs by SRB assay relative to control; format: functional; conditions: read-out: GI
[37] = system: Hs-578T; test: Anticancer activity against human Hs-578T cells assessed as cell growth inhibition at 10 uM incubated for 48 hrs by SRB assay relative to control; format: functional; conditions: read-out: GI
[38] = system: BT-549; test: Anticancer activity against human BT-549 cells assessed as cell growth inhibition at 10 uM incubated for 48 hrs by SRB assay relative to control; format: functional; conditions: read-out: GI
[39] = system: T47D; test: Anticancer activity against human T47D cells assessed as cell growth inhibition at 10 uM incubated for 48 hrs by SRB assay relative to control; format: functional; conditions: read-out: GI
[40] = system: MDA-MB-468; test: Anticancer activity against human MDA-MB-468 cells assessed as cell growth inhibition at 10 uM incubated for 48 hrs by SRB assay relative to control; format: functional; conditions: read-out: GI

Row | SMILES | Ki [1] [nM] | inhibition of growth at 10 µM [2] [%] | inhibition of growth at 10 µM [3] [%] | inhibition of growth at 10 µM [4] [%] | inhibition of growth at 10 µM [5] [%] | inhibition of growth at 10 µM [6] [%] | inhibition of growth at 10 µM [7] [%] | inhibition of growth at 10 µM [8] [%] | inhibition of growth at 10 µM [9] [%] | inhibition of growth at 10 µM [10] [%] | inhibition of growth at 10 µM [11] [%] | inhibition of growth at 10 µM [12] [%] | inhibition of growth at 10 µM [13] [%] | inhibition of growth at 10 µM [14] [%] | inhibition of growth at 10 µM [15] [%] | inhibition of growth at 10 µM [16] [%] | inhibition of growth at 10 µM [17] [%] | inhibition of growth at 10 µM [18] [%] | inhibition of growth at 10 µM [19] [%] | inhibition of growth at 10 µM [20] [%] | other results
1 | NS(=O)(=O)c1ccc(Nc2nc(N/N=C/c3cccc4ccccc34)nc(Nc3ccccc3)n2)cc1 | 28.1 | 28 | 84 | 51 | 65 | 26 | 20 | 11 | 19 | 13 | 18 | 15 | 45 | 27 | 12 | < 10 | 33 | 19 | 41 | 17 | inhibition of growth at 10 µM [21]: 29%; inhibition of growth at 10 µM [22]: < 10%; inhibition of growth at 10 µM [23]: 18%; inhibition of growth at 10 µM [24]: 26%; inhibition of growth at 10 µM [25]: 23%; inhibition of growth at 10 µM [26]: < 10%; inhibition of growth at 10 µM [27]: 40%; inhibition of growth at 10 µM [28]: < 10%; inhibition of growth at 10 µM [29]: 56%; inhibition of growth at 10 µM [30]: 18%; inhibition of growth at 10 µM [31]: 12%; inhibition of growth at 10 µM [32]: < 10%; inhibition of growth at 10 µM [33]: 18%; inhibition of growth at 10 µM [34]: 44%; inhibition of growth at 10 µM [35]: 46%; inhibition of growth at 10 µM [36]: < 10%; inhibition of growth at 10 µM [37]: 11%; inhibition of growth at 10 µM [38]: < 10%; inhibition of growth at 10 µM [39]: 55%; inhibition of growth at 10 µM [40]: < 10%
2 | CCCCc1nc(/C=N/Nc2nc(Nc3ccccc3)nc(Nc3ccc(S(N)(=O)=O)cc3)n2)c(Cl)[nH]1 | 259 | < 10 | 58 | < 10 | 88 | < 10 | < 10 | < 10 | < 10 | < 10 | 27 | 29 | < 10 | < 10 | 34 | 69 | 101 | < 10 | < 10 | 34 | inhibition of growth at 10 µM [21]: 24%; inhibition of growth at 10 µM [22]: < 10%; inhibition of growth at 10 µM [23]: 27%; inhibition of growth at 10 µM [24]: < 10%; inhibition of growth at 10 µM [25]: 53%; inhibition of growth at 10 µM [26]: < 10%; inhibition of growth at 10 µM [27]: < 10%; inhibition of growth at 10 µM [28]: < 10%; inhibition of growth at 10 µM [29]: < 10%; inhibition of growth at 10 µM [30]: < 10%; inhibition of growth at 10 µM [31]: < 10%; inhibition of growth at 10 µM [32]: < 10%; inhibition of growth at 10 µM [33]: 14%; inhibition of growth at 10 µM [34]: 17%; inhibition of growth at 10 µM [35]: 53%; inhibition of growth at 10 µM [36]: 33%; inhibition of growth at 10 µM [37]: 22%; inhibition of growth at 10 µM [38]: 52%; inhibition of growth at 10 µM [39]: 85%; inhibition of growth at 10 µM [40]: 112%
3 | NS(=O)(=O)c1ccc(Nc2nc(N/N=C/c3ccc(C(F)(F)F)cc3)nc(Nc3ccccc3)n2)cc1 | 29.7 | 51 | 90 | 105 | 92 | 72 | 46 | 61 | 63 | 85 | 70 | 46 | 90 | 78 | 49 | 66 | 81 | 77 | 80 | 71 | inhibition of growth at 10 µM [21]: 65%; inhibition of growth at 10 µM [22]: 60%; inhibition of growth at 10 µM [23]: 85%; inhibition of growth at 10 µM [24]: 68%; inhibition of growth at 10 µM [25]: 88%; inhibition of growth at 10 µM [26]: 32%; inhibition of growth at 10 µM [27]: 67%; inhibition of growth at 10 µM [28]: 12%; inhibition of growth at 10 µM [29]: 103%; inhibition of growth at 10 µM [30]: 60%; inhibition of growth at 10 µM [31]: 57%; inhibition of growth at 10 µM [32]: 35%; inhibition of growth at 10 µM [33]: 39%; inhibition of growth at 10 µM [34]: 85%; inhibition of growth at 10 µM [35]: 89%; inhibition of growth at 10 µM [36]: 73%; inhibition of growth at 10 µM [37]: 91%; inhibition of growth at 10 µM [38]: 51%; inhibition of growth at 10 µM [39]: 68%; inhibition of growth at 10 µM [40]: 65%
